Reference: article PMC5218480 (PLoS ONE, 2017)

Test system: MV-4-11 cells
Assay: Gene expression microarray analysis (Affymetrix PrimeView) and GSEA
Assay type: cell-based, human
Conditions: ProbeSet 11754607_s_at; LIST B

Nc1ncn([C@@H]2O[C@H](CO)[C@@H](O)[C@H]2O)c(=O)n1 [azacitidine]
RFU, HSP90B1 /// MIR3652: 2647.82 RFU
